In article PMC5854716, “Synthesis, molecular docking, ctDNA interaction, DFT calculation and evaluation of antiproliferative and anti-Toxoplasma gondii activities of 2,4-diaminotriazine-thiazole derivatives” (Medicinal Chemistry Research, 2018):
Values after ≈ are worked out from the molar mass of the structure shown.

Legend:
mouse L929 fibroblast = experiment: Cell viability assay (MTT), L929; format: cell-based; conditions: concentration for 30% proliferation inhibition, 24 h
Method: (§1) The epithelial cell line VERO (ATCC-Catalog No. CCL-81^TM), derived from the kidney of the African green monkey, Cercopithecus aethiops and fibroblast cell line L-929 (ATCC-Catalog No. CCL-1^TM), derived from Mus musculus (http://www.atcc.org) were grown in Iscoves’s Modified Dulbecco’s Medium (IMDM) supplemented with 10% (v/v) fetal bovine serum (FBS), plus 2 mM L-glutamine, 100 U/ml penicillin, 100.00 µg/ml streptomycin, 5 × 10^−5 M 2-mercaptoethanol and maintained at 37 °C in a 10% CO2 atmosphere. Subcultures were performed via enzymatic cell dissociation in 0.25% trypsin. After dissociation, the cells were placed in culture medium at 4 °C with 10% FBS to inhibit the action of trypsin. The isolated cells were centrifuged for 10 min at 1000×g at 4 °C, and the cells were grown in new bottles. This procedure was repeated when cells reached a confluence of ~90%. All commercial reactants and solvents were purchased from either Sigma-Aldrich Laborchemikalien GmbH (Dzitko et al. [2014]).
(§2) Suspensions of the compounds 4a–l were freshly prepared (5 mg/ml DMSO) before the cells were exposed, and diluted to appropriate concentrations; 0.9, 1.8, 3.9, 7.8, 15.6, 31.2, 62.5, and 125.00 μg/ml with the culture medium. Cells treated with 2.5% DMSO-solvent served as a control in each experiment.
(§3) The effects of tested compounds on the viability of mouse fibroblasts L929 and […] VERO cells were evaluated using the MTT assay. The MTT assay was used according to international standards: ISO 10993-5:2009 (Tests for in vitro cytotoxicity; http://www.iso.org/iso/catalogue_detail.htm? csnumber = 36406). L929 and VERO cells were plated into 96-well plates at a density of 1.0 × 10^4/100 μl/well in culture medium and allowed to attach for 24 h before treatment. Afterwards, culture medium in the plates was replaced by 100 μl compounds suspension at concentration of 0–125 μg/ml and the cells were exposed for 24 h. Then 1 mg/ml MTT (50 μl/well) was added to each well and incubated at 37 °C, 10 % CO2 for 2 h. Mitochondrial dehydrogenases of viable cells reduce the yellowish water-soluble MTT to water-insoluble formazan crystals, which were solubilized with dimethyl sulfoxide (DMSO). The cell culture medium was aspirated cautiously, after which 150 μl DMSO was added to each well and mixed thoroughly. Optical density (OD) was read on the ELISA reader (Multiskan EX, Labsystems; http://www.mtxlsi.com/multiskan_EX.htm) at 550 nm. The results were expressed as percentage viability compared with the treated 2.5% DMSO controls. All experiments were performed in triplicate.

[1] = Cell viability assay (MTT), L929; format: cell-based, Mus musculus; conditions: mouse, L929 fibroblast cells
Method: as §1, §2, §3

[2] = system: Toxoplasma gondii BK strain; experiment: T. gondii tachyzoite intracellular proliferation in VERO host cells ([3H]uracil incorporation); format: cell-based; conditions: Toxoplasma gondii, VERO host cells
Method: as §1, §2
Stock solutions of the Sulfadiazine (100 mg/ml 1 N NaOH; Catalog No. S8626) was freshly prepared before each experiment, and diluted to appropriate concentrations: 5.00, 25.00, 50.00, 125.00, 250.00, 500.00, 1250.00, and 2500.00 μg/ml, respectively in IMDM complete medium. All commercial reactants and solvents were purchased from either Sigma-Aldrich Laborchemikalien GmbH.
Tachyzoites of T. gondii, BK strain, were maintained in female C57BL/6 (H-2^b) and BALB/c (H-2^d) mice (with genetically determined high and low susceptibility, respectively to Toxoplasma infection) via serial intraperitoneal inoculation of 10^5–10^6 parasites per mouse in phosphate-buffered saline (PBS). After 48 to 96 h, parasites were harvested via peritoneal lavage using PBS, pH 7.2, and centrifuged at 200×g for 5 min to remove blood cells and cell debris. The supernatant containing tachyzoites was collected and centrifuged again at 2000×g for 15 min. The final pellet was resuspended in IMDM, quantified in a Burker’s chamber, and used in experimental assays. Inbred mice were kept under standard laboratory conventional conditions. All experimental procedures were conducted according to guidelines of the 9. Local Ethics Commission for Experiments on Animals in Lodz.
VERO, (2 × 10^4 cells/100 µl/well) were grown in complete medium (IMDM) on 96-well plates. After 24 h incubation, a medium was removed and then T. gondii […] tachyzoites, suspended in culture medium supplemented with 0.9–125.00 μg/ml diaminotriazines 4a–l and as a control-sulfadiazine (5.0–2500.0 μg/ml), were added (2 × 10^5 tachyzoites/200 µl/well) to the cell monolayers. After subsequent 48 h incubation 1 µCi/well of [^3H] uracil (Moravek Biochemicals Inc., Brea, CA, USA) was applied to each microculture for further 18–20 h. The amount of the isotope incorporated into the parasite nucleic acid pool, corresponding to the parasite growth, was measured by liquid scintillation counting with 1450 Microbeta Plus Liquid Scintillation Counter (Wallac Oy, Turku, Finland). The cpms of host cells alone (below 250/microculture) were subtracted from cpms of T. gondii infected microcultures (Dzitko et al. [2014]).

VERO cells = experiment: Cell viability assay (MTT), VERO; format: cell-based, Cercopithecus aethiops; conditions: concentration for 30% proliferation inhibition, 24 h
Method: as §1, §2, §3

[3] = Cell viability assay (MTT), VERO; format: cell-based, Cercopithecus aethiops; conditions: African green monkey (Cercopithecus aethiops), VERO kidney epithelial cells
Method: as §1, §2, §3

## C/C(=N\NC(N)=S)c1ccc(Nc2nc(N)nc(N)n2)cc1 [Compound 3, (2E)-2-(1-(4-((4,6-diamino-1,3,5-triazin-2-yl)amino)phenyl)ethylidene)hydrazinecarbothioamide]
Mouse L929 fibroblast
  CC30 L929: >125.0 µg/mL
[1]; 0.9 µg/ml
  viability at 24 h, 0.9 µg/ml: 110%
[1]; 1.8 µg/ml
  viability at 24 h, 1.8 µg/ml: 116%
[1]; 3.9 µg/ml
  viability at 24 h, 3.9 µg/ml: 111%
[1]; 7.8 µg/ml
  viability at 24 h, 7.8 µg/ml: 106%
[1]; 15.6 µg/ml
  viability at 24 h, 15.6 µg/ml: 105%
[1]; 31.2 µg/ml
  viability at 24 h, 31.2 µg/ml: 112%
[1]; 62.5 µg/ml
  viability at 24 h, 62.5 µg/ml: 111%
[1]; 125.0 µg/ml
  viability at 24 h, 125 µg/ml: 110%
[2]; 0.9 µg/ml
  activity at 0.9 µg/mL: 100%
[2]; 1.8 µg/ml
  activity at 1.8 µg/mL: 107%
[2]; 3.9 µg/ml
  activity at 3.9 µg/mL: 98.6%
[2]; 7.8 µg/ml
  activity at 7.8 µg/mL: 84.2%
[2]; 15.6 µg/ml
  activity at 15.6 µg/mL: 64.6%
[2]; 31.2 µg/ml
  activity at 31.2 µg/mL: 57.8%
[2]; 62.5 µg/ml
  activity at 62.5 µg/mL: 49.4%
[2]; 125.0 µg/ml
  activity at 125 µg/mL: 48.7%
[2]; GraphPad Prism curves, read-out: IC50 (50% inhibition of T. gondii proliferation in vitro)
  IC50: 70.4 µg/mL (≈ 222 µM)
other
  melting point: > 230 °C
VERO cells
  CC30 VERO: >125.0 µg/mL
[3]; 0.9 µg/ml
  viability at 24 h, 0.9 µg/ml: 97.2%
[3]; 1.8 µg/ml
  viability at 24 h, 1.8 µg/ml: 94%
[3]; 3.9 µg/ml
  viability at 24 h, 3.9 µg/ml: 97.3%
[3]; 7.8 µg/ml
  viability at 24 h, 7.8 µg/ml: 88.8%
[3]; 15.6 µg/ml
  viability at 24 h, 15.6 µg/ml: 89.5%
[3]; 31.2 µg/ml
  viability at 24 h, 31.2 µg/ml: 96.2%
[3]; 62.5 µg/ml
  viability at 24 h, 62.5 µg/ml: 95.1%
[3]; 125.0 µg/ml
  viability at 24 h, 125 µg/ml: 89.2%
